Test results as given in the supplement of paper PMC10307832.

Assays:
Assay in all cases: relative viability (nuclei count vs DMSO), 5 days (fraction); higher = more cells survive
[1] = compound: O=S(=O)(c1ccccc1)N(CC(F)(F)F)c1ccc(C(O)(C(F)(F)F)C(F)(F)F)cc1 + Nc1nc2[nH]cc(CCc3ccc(C(=O)N[C@@H](CCC(=O)O)C(=O)O)cc3)c2c(=O)[nH]1 [Pemetrexed] (partner 0.2 µM)
Method in brief: (§1)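 A single step with final 0.05% Triton X-100, 1% formaldehyde and 1 ug/ml Hoechst fixed the cells and stained nuclei 5 days after treatment. Lung cancer cell lines in 1536-well plates had been treated by pin tool the day after seeding with one drug alone or a fixed anchor-drug dose plus five library-drug doses (not always all listed) in √10 steps, and nuclei were counted on 4× images. Relative viability is the ratio of nuclei in treated wells to nuclei in vehicle wells, taken as the median of duplicate plates.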

[2] = compound: O=S(=O)(c1ccccc1)N(CC(F)(F)F)c1ccc(C(O)(C(F)(F)F)C(F)(F)F)cc1 + O=C(CCCCCCC(=O)Nc1ccccc1)NO [Vorinostat] (partner 1 µM)
Method in brief: as §1

[3] = compound: O=S(=O)(c1ccccc1)N(CC(F)(F)F)c1ccc(C(O)(C(F)(F)F)C(F)(F)F)cc1 + NC(=O)Nc1cc(-c2cccc(F)c2)sc1C(=O)N[C@H]1CCCNC1 [AZD7762] (partner 0.2 µM)
Method in brief: as §1

[4] = compound: O=S(=O)(c1ccccc1)N(CC(F)(F)F)c1ccc(C(O)(C(F)(F)F)C(F)(F)F)cc1 + C[C@@H](Oc1cc(-c2cnn(C3CCNCC3)c2)cnc1N)c1c(Cl)ccc(F)c1Cl [Crizotinib] (partner 1 µM)
Method in brief: as §1

RO-3306 + Pemetrexed = compound: C1=CC2=C(C=CC(=C2)C=C3C(=O)NC(=NCC4=CC=CS4)S3)N=C1 [RO-3306] + Nc1nc2[nH]cc(CCc3ccc(C(=O)N[C@@H](CCC(=O)O)C(=O)O)cc3)c2c(=O)[nH]1 [Pemetrexed] (partner 0.2 µM)
Method in brief: as §1

[5] = compound: O=S(=O)(c1ccccc1)N(CC(F)(F)F)c1ccc(C(O)(C(F)(F)F)C(F)(F)F)cc1 + Nc1ncn([C@H]2C[C@H](O)[C@@H](CO)O2)c(=O)n1 [Decitabine] (partner 2 µM)
Method in brief: as §1

Row | Cell Line | relative viability ([1]; first compound 0.8 µM) | relative viability ([1]; first compound 2.53 µM) | relative viability ([1]; first compound 8 µM) | relative viability ([2]; first compound 0.8 µM) | relative viability ([2]; first compound 2.53 µM) | relative viability ([2]; first compound 8 µM) | relative viability ([3]; first compound 0.8 µM) | relative viability ([3]; first compound 2.53 µM) | relative viability ([3]; first compound 8 µM) | relative viability ([4]; first compound 0.8 µM) | relative viability ([4]; first compound 2.53 µM) | relative viability ([4]; first compound 8 µM) | relative viability (RO-3306 + Pemetrexed; first compound 0.01 µM) | relative viability (RO-3306 + Pemetrexed; first compound 0.03162 µM) | relative viability (RO-3306 + Pemetrexed; first compound 0.1 µM) | relative viability (RO-3306 + Pemetrexed; first compound 0.3162 µM) | relative viability (RO-3306 + Pemetrexed; first compound 1 µM) | relative viability ([5]; first compound 0.8 µM) | relative viability ([5]; first compound 2.53 µM) | relative viability ([5]; first compound 8 µM)
1 | NCI-H1755 | 0.417 | 0.422 | 0.436 | 0.907 | 0.679 | 0.592 | 0.468 | 0.421 | 0.485 | 0.96 | 0.774 | 0.782 | 0.656 | 0.505 | 0.446 | 0.426 | 0.404 | 0.781 | 0.765 | 0.829
2 | NCI-H441 | 0.25 | 0.262 | 0.285 | 0.464 | 0.85 | 0.781 | 1.34 | 1.2 | 0.996 | 0.992 | 0.869 | 0.717 | 0.266 | 0.276 | 0.228 | 0.235 | 0.23 | 0.238 | 0.212 | 0.21
3 | EPLC-272H | 0.361 | 0.41 | 0.376 | 0.319 | 0.476 | 0.396 | 0.226 | 0.203 | 0.203 | 1.24 | 0.742 | 0.841 | 0.36 | 0.436 | 0.406 | 0.3 | 0.247 | 0.412 | 0.374 | 0.359
4 | HCC-366 | 0.16 | 0.182 | 0.174 | 0.506 | 0.325 | 0.279 | 0.277 | 0.317 | 0.14 | 0.903 | 0.54 | 0.314 | 0.215 | 0.194 | 0.198 | 0.137 | 0.213 | 0.394 | 0.376 | 0.242
5 | PC-14 | 0.135 | 0.116 | 0.148 | 0.63 | 0.857 | 0.656 | 0.216 | 0.228 | 0.216 | 1.1 | 0.893 | 0.932 | 0.135 | 0.162 | 0.137 | 0.133 | 0.176 | 0.197 | 0.19 | 0.209
6 | LU99A | 0.184 | 0.18 | 0.18 | 0.568 | 0.462 | 0.401 | 0.459 | 0.401 | 0.318 | 0.634 | 0.465 | 0.516 | 0.285 | 0.267 | 0.174 | 0.176 | 0.188 | 0.876 | 0.863 | 0.834
7 | ChaGo-K-1 | 0.263 | 0.264 | 0.272 | 0.885 | 0.732 | 0.655 | 0.952 | 0.888 | 0.791 | 1.31 | 1.07 | 0.613 | 0.319 | 0.266 | 0.331 | 0.259 | 0.249 | 0.746 | 0.497 | 0.49
8 | NCI-H2087 | 0.459 | 0.593 | 0.633 | 0.89 | 0.509 | 0.946 | 1.4 | 1.31 | 1.31 | 1.11 | 0.841 | 0.918 | 0.678 | 0.677 | 0.636 | 0.652 | 0.648 | 0.305 | 0.327 | 0.301
9 | BEN | 0.702 | 0.742 | 0.972 | 0.581 | 0.543 | 0.566 | 0.724 | 0.717 | 0.689 | 0.952 | 0.89 | 0.766 | 0.634 | 0.735 | 0.728 | 0.769 | 0.803 | 0.801 | 0.773 | 0.687
10 | NCI-H2405 | 1.17 | 1.05 | 1.01 | 1.02 | 0.755 | 0.913 | 0.907 | 0.665 | 0.705 | 0.884 | 0.837 | 0.9 | 0.913 | 1.02 | 1.01 | 0.971 | 0.907 | 0.841 | 0.701 | 0.797
